{"source": "patent EP0330824A1", "about": "“Use of quinolizine and quinolizinone derivatives in the manufacture of medicaments for the treatment of cardiac arrhythmias” (MERRELL DOW PHARMACEUTICALS INC., priority 1988, dated 1989)", "key": {"[1]": {"test_system": "Von Bezold-Jarisch Reflex induced by 5-HT", "experiment": "Von Bezold-Jarisch Reflex induced by intravenous 5-HT", "type": "in vivo", "conditions": "rat", "description": "The activity of these compounds against 5-HT can be assessed in vivo by measurement of the effect of the compound on the Von Bezold-Jarisch Reflex induced by 5-HT injected intravenously into the rat (see Paintal A.S., Physiol. Rev. 53, 159-227, 1973; J.R. Fozard, Naunyn-Schmiedeberg's Arch. Pharmacol., 326, 1984, 36-44). The transient cardiac slowing arises from an increased afferent vagus activity arising from stimulation by 5-HT of sensory afferent fibers in and around the heart."}, "[2]": {"test_system": "action potential of isolated cardiac tissue", "experiment": "Action potential of isolated cardiac tissue (Purkinje fiber or papillary muscle)", "parameters": "species or system dog or guinea pig", "conditions": "10⁻⁸ to 10⁻⁵ moles/liter in tissue bath, stimulation at 1 Hz", "description": "A gas mixture comprised of 95% O₂ and 5% CO₂ is bubbled through the solution while it is maintained within a pH range of from 7.3-7.4.\nThe heart of an anesthetized mongrel dog is surgically removed and the Purkinje fibers are dissected from either of the ventricles. Alternately, papillary muscles are removed from the right cardiac ventricle of a guinea pig. A Purkinje fiber or a papillary muscle is then placed in a tissue bath which is continuously perfused with modified Tyrode's solution.¹\nThe electrophysiology of the cardiac tissue is monitored by conventional glass microelectrodes. One microelectrode is inserted into a cell in the cardiac muscle fiber and a ground electrode is positioned in the tissue bath. A conventional oscilloscope is utilized to visualize the action potential waveforms of the cardiac cell. […]\nAt this point, representative control action potentials are recorded and analyzed by a computer.\nAfter establishing a control action potential, the test compound is introduced into the Modified Tyrode's solution in a quantity such that the test compound is present within the tissue bath in a range of from 10⁻⁸ to 10⁻⁵ moles/liter. After the effect of the test compound has reached a steady state, the action potential is again recorded and analyzed in the manner described above."}}, "note": "Structures can show the parent of a compound that is named as a salt.", "data": [{"smiles": "O=C(OC1CC2CC3CC(C1)N2CC3=O)c1c[nH]c2ccccc12", "note": "(stereo not drawn) [endo-hexahydro-8-(3-indolylcarbonyloxy)-2,6-methano-2H-quinolizin-3(4H)-one hydrochloride]", "values": [{"measurement": "suppression of the Von Bezold-Jarisch Reflex response", "setting": "[1]; 0.01-0.1 mg/kg given intravenously", "value": "suppressed the response dose-dependently"}, {"measurement": "suppression of the Von Bezold-Jarisch Reflex response", "setting": "[1]; 0.25-1 mg/kg given orally", "value": "suppressed the response dose-dependently"}]}, {"smiles": "O=C(OC1CC2CC3CC(C1)N2CC3=O)c1c[nH]c2ccccc12", "note": "(stereo not drawn) [endo-hexahydro-8-(3-indolylcarbonyloxy)-2,6-methano-2H-quinolizin-3(4H)-one]", "values": [{"measurement": "rate of maximal depolarization of the action potential", "setting": "[2]", "value": "capable of delaying the rate of maximal depolarization of the action potential"}]}]}
